From US9365522B2, “Pyrazole amide derivative” (AMGEN INC., priority 2015, dated 2016)

Molecular target: T1, human RORγ-LBD (Homo sapiens, UniProt P51449)
T1 construct: made in house; host or cells: E. coli (BL-21)
T1 sequence (P51449 262-518): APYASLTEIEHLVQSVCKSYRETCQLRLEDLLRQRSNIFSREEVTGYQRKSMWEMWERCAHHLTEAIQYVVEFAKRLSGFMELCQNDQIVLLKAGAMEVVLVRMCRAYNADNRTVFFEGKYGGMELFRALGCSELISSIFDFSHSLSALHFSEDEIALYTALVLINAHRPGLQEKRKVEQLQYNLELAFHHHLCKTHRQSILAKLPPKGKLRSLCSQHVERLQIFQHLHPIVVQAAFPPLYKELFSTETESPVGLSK
Assay: ROR gamma coactivator peptide recruitment Alphascreen assay (RORγ-LBD binding to GRIP1 coactivator peptide)
Format: biochemical
Settings: 5 nM human RORγ-LBD, 30 nM 7-β-hydroxycholesterol, 50 nM biotinylated GRIP1 coactivator peptide, overnight incubation at room temperature; read-out: result (pIC50, RORγ coactivator peptide recruitment Alphascreen assay) (converted)
Method in brief: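 Alphascreen proximity read-out after overnight room-temperature incubation, yielding pIC50 from 1-in-2 compound series (2.5% DMSO final). Mixture: 50 nM biotin-GRIP1 peptide, 30 nM 7-β-hydroxycholesterol agonist, 5 nM recombinant 6×His:Flag human RORγ-LBD (aa 262-518), 50 mM HEPES pH 7.4.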

SMILES	IC50 [nM]
CC1(C)CCC(N(CCc2c(Cl)cccc2Cl)C(=O)c2cnn([C@H]3CC[C@H](C(=O)O)CC3)c2C(F)(F)F)CC1 [Example 534, trans-4-(4-((2-(2,6-dichlorophenyl)ethyl)(4,4-dimethylcyclohexyl)carbamoyl)-5-(trifluoromethyl)-1H-pyrazol-1-yl)cyclohexanecarboxylic acid]	7.94
CC(C)(C)CN(CC(=O)c1c(Cl)cnc2ccccc12)C(=O)c1cnn([C@H]2CC[C@](C)(C(=O)O)CC2)c1C(F)(F)F [Example 538, trans-4-(4-((2-(3-chloro-4-quinolinyl)-2-oxoethyl)(2,2-dimethylpropyl)carbamoyl)-5-(trifluoromethyl)-1H-pyrazol-1-yl)-1-methylcyclohexanecarboxylic acid]	112
CC1(C)CCC(CN(CCc2c(Cl)cncc2Cl)C(=O)c2cnn([C@H]3CC[C@H](C(=O)O)CC3)c2C(F)(F)F)CC1 [Example 546, trans-4-(4-((2-(3,5-dichloro-4-pyridinyl)ethyl)((4,4-dimethylcyclohexyl)methyl)carbamoyl)-5-(trifluoromethyl)-1H-pyrazol-1-yl)cyclohexanecarboxylic acid]	11.2
CC(C)(C)C#CCN(CCc1c(Cl)cncc1Cl)C(=O)c1cnn([C@H]2CC[C@H](C(=O)O)CC2)c1C(F)(F)F [Example 548, trans-4-(4-((2-(3,5-dichloro-4-pyridinyl)ethyl)(4,4-dimethyl-2-pentyn-1-yl)carbamoyl)-5-(trifluoromethyl)-1H-pyrazol-1-yl)cyclohexanecarboxylic acid]	11.7
CC1(CN(CCc2c(Cl)cncc2Cl)C(=O)c2cnn([C@H]3CC[C@H](C(=O)O)CC3)c2C(F)(F)F)CCCCC1 [Example 549, trans-4-(4-((2-(3,5-dichloro-4-pyridinyl)ethyl)((1-methylcyclohexyl)methyl)carbamoyl)-5-(trifluoromethyl)-1H-pyrazol-1-yl)cyclohexanecarboxylic acid]	1.74
CC1(C)CCC(N(CCc2c(Cl)cncc2Cl)C(=O)c2cnn([C@H]3CC[C@H](C(=O)O)CC3)c2C(F)(F)F)CC1 [Example 550, trans-4-(4-((2-(3,5-dichloro-4-pyridinyl)ethyl)(4,4-dimethylcyclohexyl)carbamoyl)-5-(trifluoromethyl)-1H-pyrazol-1-yl)cyclohexanecarboxylic acid]	21.4
C[C@@]1(CN(CCc2c(Cl)cncc2Cl)C(=O)c2cnn([C@H]3CC[C@H](C(=O)O)CC3)c2C(F)(F)F)CCCO1 [Example 552, trans-4-(4-((2-(3,5-dichloro-4-pyridinyl)ethyl)(((2S)-2-methyltetrahydro-2-furanyl)methyl)carbamoyl)-5-(trifluoromethyl)-1H-pyrazol-1-yl)cyclohexanecarboxylic acid]	331
CC1(C)CC(CN(CCc2c(Cl)cncc2Cl)C(=O)c2cnn([C@H]3CC[C@](C)(C(=O)O)CC3)c2C(F)(F)F)C1 [Example 556, trans-4-(4-((2-(3,5-dichloro-4-pyridinyl)ethyl)((3,3-dimethylcyclobutyl)methyl)carbamoyl)-5-(trifluoromethyl)-1H-pyrazol-1-yl)-1-methylcyclohexanecarboxylic acid]	2.4
CC1(CN(CCc2c(Cl)cncc2Cl)C(=O)c2cnn([C@H]3CC[C@H](C(=O)O)CC3)c2C(F)(F)F)CCCC1 [Example 557, trans-4-(4-((2-(3,5-dichloro-4-pyridinyl)ethyl)((1-methylcyclopentyl)methyl)carbamoyl)-5-(trifluoromethyl)-1H-pyrazol-1-yl)cyclohexanecarboxylic acid]	2.82
CC1(C)[C@@H]2C[C@H](N(CC(=O)c3c(Cl)cncc3Cl)C(=O)c3cnn([C@H]4CC[C@](C)(C(=O)O)CC4)c3C(F)(F)F)C[C@@H]21 [Example 558, trans-4-(4-((2-(3,5-dichloro-4-pyridinyl)-2-oxoethyl)((1R,3r,5S)-6,6-dimethylbicyclo[3.1.0]hex-3-yl)carbamoyl)-5-(trifluoromethyl)-1H-pyrazol-1-yl)-1-methylcyclohexanecarboxylic acid]	2.45
CC1(C)CC(CN(CC(=O)c2c(Cl)cncc2Cl)C(=O)c2cnn([C@H]3CC[C@](C)(C(=O)O)CC3)c2C(F)(F)F)C1 [Example 559, trans-4-(4-((2-(3,5-dichloro-4-pyridinyl)-2-oxoethyl)((3,3-dimethylcyclobutyl)methyl)carbamoyl)-5-(trifluoromethyl)-1H-pyrazol-1-yl)-1-methylcyclohexanecarboxylic acid]	7.08

The next lines start with the values.

IC50 [nM]	SMILES
1.32	Cc1cc(Cl)c(C(=O)CN(CC2CCC(C)(C)CC2)C(=O)c2cnn([C@H]3CC[C@H](C(=O)O)CC3)c2C(F)(F)F)c(Cl)c1 [Example 535, trans-4-(4-((2-(2,6-dichloro-4-methylphenyl)-2-oxoethyl)((4,4-dimethylcyclohexyl)methyl)carbamoyl)-5-(trifluoromethyl)-1H-pyrazol-1-yl)cyclohexanecarboxylic acid]
9.55	Cc1cc(Cl)c(C(=O)CN(C(=O)c2cnn([C@H]3CC[C@H](C(=O)O)CC3)c2C(F)(F)F)[C@H]2C[C@H](C(C)(C)C)C2)c(Cl)c1 [Example 536, trans-4-(4-((2-(2,6-dichloro-4-methylphenyl)-2-oxoethyl)(trans-3-(2-methyl-2-propanyl)cyclobutyl)carbamoyl)-5-(trifluoromethyl)-1H-pyrazol-1-yl)cyclohexanecarboxylic acid]
2.24	Cc1cc(Cl)c(C(=O)CN(CC2CCCCC2)C(=O)c2cnn([C@H]3CC[C@H](C(=O)O)CC3)c2C(F)(F)F)c(Cl)c1 [Example 537, trans-4-(4-((cyclohexylmethyl)(2-(2,6-dichloro-4-methylphenyl)-2-oxoethyl)carbamoyl)-5-(trifluoromethyl)-1H-pyrazol-1-yl)cyclohexanecarboxylic acid]
89.1	O=C(CN(Cc1ccc(F)cc1)C(=O)c1cnn([C@H]2CC[C@H](C(=O)O)CC2)c1C(F)(F)F)c1c(Cl)cnc2ccccc12 [Example 539, trans-4-(4-((2-(3-chloro-4-quinolinyl)-2-oxoethyl)(4-fluorobenzyl)carbamoyl)-5-(trifluoromethyl)-1H-pyrazol-1-yl)cyclohexanecarboxylic acid]
3.16	O=C(CN(Cc1ccc(Cl)cc1)C(=O)c1cnn([C@H]2CC[C@H](C(=O)O)CC2)c1C(F)(F)F)c1c(Cl)ccc(F)c1Cl [Example 541, trans-4-(4-((4-chlorobenzyl)(2-(2,6-dichloro-3-fluorophenyl)-2-oxoethyl)carbamoyl)-5-(trifluoromethyl)-1H-pyrazol-1-yl)cyclohexanecarboxylic acid]
79.4	Cc1cc(Cl)c(C(=O)CN(CC(C)(C)C)C(=O)c2cnn([C@H]3CC[C@H](C(=O)O)CC3)c2C(F)(F)F)c(Cl)n1 [Example 542, trans-4-(4-((2-(2,4-dichloro-6-methyl-3-pyridinyl)-2-oxoethyl)(2,2-dimethylpropyl)carbamoyl)-5-(trifluoromethyl)-1H-pyrazol-1-yl)cyclohexanecarboxylic acid]
3.31	Cc1cc(Cl)c(C(=O)CN(Cc2ccc(Cl)cc2)C(=O)c2cnn([C@H]3CC[C@H](C(=O)O)CC3)c2C(F)(F)F)c(Cl)n1 [Example 543, trans-4-(4-((4-chlorobenzyl)(2-(2,4-dichloro-6-methyl-3-pyridinyl)-2-oxoethyl)carbamoyl)-5-(trifluoromethyl)-1H-pyrazol-1-yl)cyclohexanecarboxylic acid]
3630	Cc1cc(C)n(CCN(Cc2ccc(Cl)cc2)C(=O)c2cnn([C@H]3CC[C@H](C(=O)O)CC3)c2C(F)(F)F)c(=O)c1 [Example 544, trans-4-(4-((4-chlorobenzyl)(2-(4,6-dimethyl-2-oxo-1(2H)-pyridinyl)ethyl)carbamoyl)-5-(trifluoromethyl)-1H-pyrazol-1-yl)cyclohexanecarboxylic acid]
4.9	CC(C)(C)CN(CC(=O)c1c(Cl)cccc1Cl)C(=O)c1cnn([C@H]2CC[C@H](C(=O)O)CC2)c1C(F)(F)F [Example 545, trans-4-(4-((2-(2,6-dichlorophenyl)-2-oxoethyl)(2,2-dimethylpropyl)carbamoyl)-5-(trifluoromethyl)-1H-pyrazol-1-yl)cyclohexanecarboxylic acid]
19.5	CC(C)(C)CN(CCc1c(Cl)cncc1Cl)C(=O)c1cnn([C@H]2CC[C@H](C(=O)O)CC2)c1C(F)(F)F [Example 547]
2.75	CC1(C)CC(CN(CCc2c(Cl)cncc2Cl)C(=O)c2cnn([C@H]3CC[C@H](C(=O)O)CC3)c2C(F)(F)F)C1 [Example 553, trans-4-(4-((2-(3,5-dichloro-4-pyridinyl)ethyl)((3,3-dimethylcyclobutyl)methyl)carbamoyl)-5-(trifluoromethyl)-1H-pyrazol-1-yl)cyclohexanecarboxylic acid]
7.08	CC1(C)C[C@H]1CN(CCc1c(Cl)cncc1Cl)C(=O)c1cnn([C@H]2CC[C@H](C(=O)O)CC2)c1C(F)(F)F [Example 554, trans-4-(4-((2-(3,5-dichloro-4-pyridinyl)ethyl)(((1R)-2,2-dimethylcyclopropyl)methyl)carbamoyl)-5-(trifluoromethyl)-1H-pyrazol-1-yl)cyclohexanecarboxylic acid]
295	CC1(CN(CCc2c(Cl)cncc2Cl)C(=O)c2cnn([C@H]3CC[C@@H](C(=O)O)CC3)c2C(F)(F)F)CCC1 [Example 560, cis-4-(4-((2-(3,5-dichloro-4-pyridinyl)ethyl)((1-methylcyclobutyl)methyl)carbamoyl)-5-(trifluoromethyl)-1H-pyrazol-1-yl)cyclohexanecarboxylic acid]
